# Legend:
# [1] = Half life in Sprague-Dawley rat plasma at 3 mg/kg, po measured after 24 hrs by LC-MS/MS analysis; format: ADME, organism-based; conditions: in vivo
# [2] = Metabolic stability in dog hepatic microsome at 4 uM measured after 30 mins by LC-MS analysis; format: ADME, Canis lupus familiaris; conditions: liver microsomes, read-out: Stability
# [3] = biological target: T1, Low molecular weight phosphotyrosine protein phosphatase (Homo sapiens, UniProt P24666); assay: Competitive inhibition of LMW-PTP (unknown origin) assessed as inhibition constant by Lineweaver-Burk plot analysis
# T1 sequence (P24666 whole entry): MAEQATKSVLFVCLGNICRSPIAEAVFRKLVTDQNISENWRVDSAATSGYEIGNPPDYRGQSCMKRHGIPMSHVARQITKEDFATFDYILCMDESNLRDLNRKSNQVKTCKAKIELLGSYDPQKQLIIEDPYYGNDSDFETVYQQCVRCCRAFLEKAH
# [4] = Unbound Cmax in plasma of Sprague-Dawley rat at 3 mg/kg, po measured after 24 hrs by LC-MS/MS analysis; format: ADME, organism-based; conditions: in vivo
# [5] = Half life in Sprague-Dawley rat plasma at 30 mg/kg, po measured after 24 hrs by LC-MS/MS analysis; format: ADME, organism-based; conditions: in vivo
# [6] = biological target: Receptor-type tyrosine-protein phosphatase epsilon (Homo sapiens, UniProt P23469); assay: Inhibition of PTPepsilon (unknown origin)
# [7] = Unbound Cmax in plasma of CD-1 mouse at 10 mg/kg, po measured after 8 hrs by LC-MS/MS analysis; format: ADME, organism-based; conditions: in vivo
# CYP3A4 = CYP3A4 (Homo sapiens, UniProt P08684); assay: Inhibition of human hepatic CYP3A4 using midazolam as substrate measured after 3 mins by LC-MS analysis relative to control; format: ADME, tissue-based; parameters: concentration or dose not given beside the values; conditions: human hepatic CYP3A4 (liver), probe midazolam
# [8] = biological target: Tyrosine-protein phosphatase non-receptor type 22 (Homo sapiens, UniProt Q9Y2R2); assay: Inhibition of LYP (unknown origin)
# [9] = biological target: Receptor-type tyrosine-protein phosphatase mu (Homo sapiens, UniProt P28827); assay: Inhibition of PTPmu (unknown origin)
# [10] = biological target: Receptor-type tyrosine-protein phosphatase F (Homo sapiens, UniProt P10586); assay: Inhibition of LAR(unknown origin)
# [11] = biological target: T2, Low molecular weight phosphotyrosine protein phosphatase (Rattus norvegicus, UniProt P41498); assay: Inhibition of N-terminal His-tagged full length rat LMW-PTP expressed in Escherichia coli BL21(DE3)
# T2 sequence (P41498 whole entry): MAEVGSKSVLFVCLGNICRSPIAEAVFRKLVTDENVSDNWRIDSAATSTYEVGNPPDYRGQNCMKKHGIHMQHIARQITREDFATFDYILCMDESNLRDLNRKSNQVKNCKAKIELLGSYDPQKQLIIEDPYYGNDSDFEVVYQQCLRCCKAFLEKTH
# [12] = AUC(0 to 12 hrs) in Sprague-Dawley rat plasma at 3 mg/kg, po measured after 24 hrs by LC-MS/MS analysis; format: ADME, organism-based; parameters: time 24 hrs, dose 3 mg/kg, route po; conditions: in vivo
# [13] = biological target: Tyrosine-protein phosphatase non-receptor type 13 (Homo sapiens, UniProt Q12923); assay: Inhibition of FAP-1(unknown origin)
# [14] = biological target: Receptor-type tyrosine-protein phosphatase beta (Homo sapiens, UniProt P23467); assay: Inhibition of PTPbeta (unknown origin)
# [15] = biological target: Receptor-type tyrosine-protein phosphatase C (Homo sapiens, UniProt P08575); assay: Inhibition of CD45 (unknown origin)
# Receptor-type tyrosine-protein phosphatase C, sequence (P08575 whole entry): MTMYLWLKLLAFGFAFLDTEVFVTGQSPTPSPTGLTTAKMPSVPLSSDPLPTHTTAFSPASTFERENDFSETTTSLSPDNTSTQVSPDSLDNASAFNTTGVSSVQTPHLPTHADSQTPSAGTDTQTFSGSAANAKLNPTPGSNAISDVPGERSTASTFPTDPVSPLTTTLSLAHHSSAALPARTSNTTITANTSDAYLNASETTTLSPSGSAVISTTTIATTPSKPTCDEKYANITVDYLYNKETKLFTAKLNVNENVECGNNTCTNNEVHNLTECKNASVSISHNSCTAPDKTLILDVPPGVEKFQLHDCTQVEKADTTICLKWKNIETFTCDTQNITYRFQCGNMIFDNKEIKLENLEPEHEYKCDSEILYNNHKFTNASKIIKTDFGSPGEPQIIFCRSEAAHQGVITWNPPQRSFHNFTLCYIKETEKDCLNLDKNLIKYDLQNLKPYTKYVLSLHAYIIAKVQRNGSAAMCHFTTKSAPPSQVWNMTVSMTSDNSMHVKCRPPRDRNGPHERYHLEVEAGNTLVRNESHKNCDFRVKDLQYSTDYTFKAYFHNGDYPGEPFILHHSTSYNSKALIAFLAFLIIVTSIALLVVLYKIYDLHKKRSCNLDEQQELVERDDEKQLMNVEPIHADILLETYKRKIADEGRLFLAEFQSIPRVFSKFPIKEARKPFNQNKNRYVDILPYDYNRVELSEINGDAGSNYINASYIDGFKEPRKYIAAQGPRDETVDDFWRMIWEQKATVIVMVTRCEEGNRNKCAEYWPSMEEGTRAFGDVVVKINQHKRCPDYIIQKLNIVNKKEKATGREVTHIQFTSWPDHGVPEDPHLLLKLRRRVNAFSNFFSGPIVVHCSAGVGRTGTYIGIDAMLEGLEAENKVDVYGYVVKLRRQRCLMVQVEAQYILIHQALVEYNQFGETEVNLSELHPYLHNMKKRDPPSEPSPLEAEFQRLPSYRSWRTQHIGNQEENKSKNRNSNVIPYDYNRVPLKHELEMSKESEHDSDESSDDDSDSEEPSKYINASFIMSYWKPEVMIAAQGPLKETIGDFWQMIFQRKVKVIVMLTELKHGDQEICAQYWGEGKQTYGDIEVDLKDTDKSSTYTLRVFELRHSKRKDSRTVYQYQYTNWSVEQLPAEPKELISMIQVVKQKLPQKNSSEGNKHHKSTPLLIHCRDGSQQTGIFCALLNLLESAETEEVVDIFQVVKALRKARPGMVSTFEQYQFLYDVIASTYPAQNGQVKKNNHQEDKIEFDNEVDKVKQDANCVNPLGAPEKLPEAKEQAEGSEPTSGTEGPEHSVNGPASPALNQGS
# [16] = Unbound Cmax in plasma of CD-1 mouse at 2 mg/kg, iv measured after 8 hrs by LC-MS/MS analysis; format: ADME, organism-based; conditions: in vivo
# [17] = biological target: Receptor-type tyrosine-protein phosphatase gamma (Homo sapiens, UniProt P23470); assay: Inhibition of PTPgamma (unknown origin)
# Receptor-type tyrosine-protein phosphatase gamma, sequence (P23470 whole entry): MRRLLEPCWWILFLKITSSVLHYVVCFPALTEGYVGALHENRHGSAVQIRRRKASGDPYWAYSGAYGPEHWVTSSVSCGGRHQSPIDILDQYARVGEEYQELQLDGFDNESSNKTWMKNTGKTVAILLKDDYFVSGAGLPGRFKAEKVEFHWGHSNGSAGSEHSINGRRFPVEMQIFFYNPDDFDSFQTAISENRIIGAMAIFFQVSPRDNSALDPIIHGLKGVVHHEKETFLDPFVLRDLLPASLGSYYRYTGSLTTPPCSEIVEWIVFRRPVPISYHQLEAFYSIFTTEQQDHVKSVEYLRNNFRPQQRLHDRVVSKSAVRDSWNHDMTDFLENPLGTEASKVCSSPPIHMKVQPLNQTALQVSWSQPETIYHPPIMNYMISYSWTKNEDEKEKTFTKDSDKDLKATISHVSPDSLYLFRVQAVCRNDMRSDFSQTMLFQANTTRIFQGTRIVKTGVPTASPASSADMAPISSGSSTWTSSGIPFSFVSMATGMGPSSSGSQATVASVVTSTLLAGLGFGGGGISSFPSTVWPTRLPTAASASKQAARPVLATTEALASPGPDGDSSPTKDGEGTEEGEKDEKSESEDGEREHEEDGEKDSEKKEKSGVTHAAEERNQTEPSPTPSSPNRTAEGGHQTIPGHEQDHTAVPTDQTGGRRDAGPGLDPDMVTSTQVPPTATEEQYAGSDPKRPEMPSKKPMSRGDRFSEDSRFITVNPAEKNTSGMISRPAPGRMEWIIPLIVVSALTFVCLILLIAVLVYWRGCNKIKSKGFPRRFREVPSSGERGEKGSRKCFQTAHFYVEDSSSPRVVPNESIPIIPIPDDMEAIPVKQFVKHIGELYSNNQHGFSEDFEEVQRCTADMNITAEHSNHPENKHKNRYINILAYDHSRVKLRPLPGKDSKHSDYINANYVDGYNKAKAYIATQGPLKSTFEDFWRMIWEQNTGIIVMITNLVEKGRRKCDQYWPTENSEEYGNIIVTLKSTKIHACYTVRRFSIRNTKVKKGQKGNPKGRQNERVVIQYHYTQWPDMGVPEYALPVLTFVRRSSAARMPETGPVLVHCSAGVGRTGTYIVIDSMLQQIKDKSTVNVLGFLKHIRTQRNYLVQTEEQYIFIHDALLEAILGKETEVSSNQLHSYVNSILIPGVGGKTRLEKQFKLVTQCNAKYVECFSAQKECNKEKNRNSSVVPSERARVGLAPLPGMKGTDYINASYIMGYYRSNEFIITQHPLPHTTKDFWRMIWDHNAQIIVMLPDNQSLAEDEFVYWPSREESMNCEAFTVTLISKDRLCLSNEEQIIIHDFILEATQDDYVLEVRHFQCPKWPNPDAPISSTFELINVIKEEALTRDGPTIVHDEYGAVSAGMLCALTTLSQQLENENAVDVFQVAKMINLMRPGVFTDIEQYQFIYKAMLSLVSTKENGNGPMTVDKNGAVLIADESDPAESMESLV
# [18] = biological target: Tyrosine-protein phosphatase non-receptor type 3 (Homo sapiens, UniProt P26045); assay: Inhibition of PTPH1 (unknown origin)
# Tyrosine-protein phosphatase non-receptor type 3, sequence (P26045 whole entry): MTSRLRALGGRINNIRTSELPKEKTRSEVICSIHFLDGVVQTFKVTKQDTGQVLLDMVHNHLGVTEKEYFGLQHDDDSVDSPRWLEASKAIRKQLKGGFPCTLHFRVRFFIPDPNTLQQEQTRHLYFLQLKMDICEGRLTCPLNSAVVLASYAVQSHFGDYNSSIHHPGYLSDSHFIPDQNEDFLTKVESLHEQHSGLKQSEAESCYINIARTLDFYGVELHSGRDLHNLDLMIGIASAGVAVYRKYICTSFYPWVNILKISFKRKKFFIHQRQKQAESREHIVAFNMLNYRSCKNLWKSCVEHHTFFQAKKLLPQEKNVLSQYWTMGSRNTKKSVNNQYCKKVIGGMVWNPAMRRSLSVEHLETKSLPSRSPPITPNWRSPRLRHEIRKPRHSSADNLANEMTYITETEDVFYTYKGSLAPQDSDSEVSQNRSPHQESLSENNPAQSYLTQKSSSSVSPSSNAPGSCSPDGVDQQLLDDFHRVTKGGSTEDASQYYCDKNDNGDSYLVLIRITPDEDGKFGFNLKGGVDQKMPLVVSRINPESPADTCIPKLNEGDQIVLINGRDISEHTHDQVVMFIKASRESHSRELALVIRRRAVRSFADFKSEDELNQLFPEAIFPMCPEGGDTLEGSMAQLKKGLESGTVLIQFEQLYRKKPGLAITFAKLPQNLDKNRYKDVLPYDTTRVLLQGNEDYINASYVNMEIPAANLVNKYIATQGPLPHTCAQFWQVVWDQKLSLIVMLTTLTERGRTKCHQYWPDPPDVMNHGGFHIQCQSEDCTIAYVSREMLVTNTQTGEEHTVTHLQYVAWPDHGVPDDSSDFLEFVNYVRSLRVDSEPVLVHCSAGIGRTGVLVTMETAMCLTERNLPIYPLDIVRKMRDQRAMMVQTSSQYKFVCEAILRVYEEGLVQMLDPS
# [19] = biological target: Dual specificity protein phosphatase CDC14A (Homo sapiens, UniProt Q9UNH5); assay: Inhibition of CDC14A (unknown origin)
# Dual specificity protein phosphatase CDC14A, sequence (Q9UNH5 whole entry): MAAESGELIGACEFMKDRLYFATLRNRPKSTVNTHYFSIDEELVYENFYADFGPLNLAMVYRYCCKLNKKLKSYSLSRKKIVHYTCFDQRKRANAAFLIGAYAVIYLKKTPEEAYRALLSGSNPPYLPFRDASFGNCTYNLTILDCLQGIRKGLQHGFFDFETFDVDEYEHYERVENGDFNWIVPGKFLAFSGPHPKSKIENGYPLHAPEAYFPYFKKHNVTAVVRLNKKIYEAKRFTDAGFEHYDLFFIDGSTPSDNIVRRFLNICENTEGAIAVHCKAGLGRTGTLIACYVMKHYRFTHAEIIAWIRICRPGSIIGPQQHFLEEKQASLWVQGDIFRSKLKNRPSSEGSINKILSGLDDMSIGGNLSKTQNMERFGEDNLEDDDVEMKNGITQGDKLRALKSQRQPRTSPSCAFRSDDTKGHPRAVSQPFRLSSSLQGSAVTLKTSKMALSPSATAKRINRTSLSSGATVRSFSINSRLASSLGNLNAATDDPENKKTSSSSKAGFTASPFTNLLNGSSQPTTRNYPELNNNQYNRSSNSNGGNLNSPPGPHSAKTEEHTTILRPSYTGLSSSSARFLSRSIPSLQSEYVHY
# [20] = Tmax in Sprague-Dawley rat plasma at 30 mg/kg, po measured after 24 hrs by LC-MS/MS analysis; format: ADME, organism-based; conditions: in vivo
# [21] = Cmax in CD-1 mouse plasma at 10 mg/kg, po measured after 8 hrs by LC-MS/MS analysis; format: ADME, organism-based; parameters: dose 10 mg/kg, time 8 hrs, route po; conditions: mouse, in vivo, 8 h
# [22] = biological target: Dual specificity protein phosphatase 6 (Homo sapiens, UniProt Q16828); assay: Inhibition of MKP3 (unknown origin)
# [23] = Metabolic stability in human hepatic microsome at 4 uM measured after 30 mins by LC-MS analysis; format: ADME; conditions: liver microsomes, read-out: Stability
# [24] = biological target: Serine/threonine-protein phosphatase 5 (Homo sapiens, UniProt P53041); assay: Inhibition of PP5 (unknown origin)
# CYP2D6 = CYP2D6 (Homo sapiens, UniProt P10635); assay: Inhibition of human hepatic CYP2D6 using bufuralol HCL as substrate measured after 3 mins by LC-MS analysis relative to control; format: ADME, tissue-based; parameters: concentration or dose not given beside the values; conditions: human hepatic CYP2D6 (liver), probe bufuralol HCl
# [25] = biological target: Receptor-type tyrosine-protein phosphatase alpha (Homo sapiens, UniProt P18433); assay: Inhibition of PTPalpha (unknown origin)
# [26] = Oral bioavailability in CD-1 mouse plasma at 10 mg/kg measured after 8 hrs by LC-MS/MS analysis; format: ADME, organism-based; conditions: mouse, in vivo, po, 10 mg/kg, 8 h
# [27] = Aqueous solubility of compound at pH 6 by HPLC analysis; format: physicochemical; conditions: buffer
# [28] = Volume of distribution at steady state in CD-1 mouse plasma at 2 mg/kg, iv measured after 8 hrs by LC-MS/MS analysis; format: ADME, organism-based; conditions: in vivo
# [29] = Inhibition of PTP-Meg2 (unknown origin); parameters: species or system Homo sapiens
# [30] = Cmax in CD-1 mouse plasma at 2 mg/kg, iv measured after 8 hrs by LC-MS/MS analysis; format: ADME, organism-based; parameters: time 8 hrs, dose 2 mg/kg, route iv
# [31] = Cmax in Sprague-Dawley rat plasma at 3 mg/kg, po measured after 24 hrs by LC-MS/MS analysis; format: ADME, organism-based; parameters: time 24 hrs, dose 3 mg/kg, route po; conditions: in vivo
# [32] = Plasma protein binding in mouse assessed as unbound fraction measured after 4.5 hrs by LC-MS/MS analysis; format: ADME, cell-free
# [33] = biological target: Tyrosine-protein phosphatase non-receptor type 1 (Homo sapiens, UniProt P18031); assay: Inhibition of PTP1B (unknown origin)
# [34] = biological target: Dual specificity protein phosphatase 23 (Homo sapiens, UniProt Q9BVJ7); assay: Inhibition of VHZ (unknown origin)
# [35] = biological target: RNA polymerase II subunit A C-terminal domain phosphatase SSU72 (Homo sapiens, UniProt Q9NP77); assay: Inhibition of SSU72 (unknown origin)
# RNA polymerase II subunit A C-terminal domain phosphatase SSU72, sequence (Q9NP77 whole entry, the tested form may be a part): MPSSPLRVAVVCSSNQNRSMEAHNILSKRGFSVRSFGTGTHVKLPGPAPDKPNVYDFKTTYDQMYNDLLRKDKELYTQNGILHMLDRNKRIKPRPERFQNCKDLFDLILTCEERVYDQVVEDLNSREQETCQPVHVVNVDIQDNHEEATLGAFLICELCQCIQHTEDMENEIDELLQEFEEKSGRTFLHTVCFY
# [36] = biological target: Tyrosine-protein phosphatase non-receptor type 12 (Homo sapiens, UniProt Q05209); assay: Inhibition of PEST(unknown origin)
# [37] = AUC(0 to 8 hrs) in CD-1 mouse plasma at 2 mg/kg, iv measured after 8 hrs by LC-MS/MS analysis; format: ADME, organism-based; parameters: dose 2 mg/kg, time 8 hrs, route iv; conditions: in vivo
# [38] = biological target: Tyrosine-protein phosphatase non-receptor type 6 (Homo sapiens, UniProt P29350); assay: Inhibition of SHP1 (unknown origin)
# Tyrosine-protein phosphatase non-receptor type 6, sequence (P29350 whole entry): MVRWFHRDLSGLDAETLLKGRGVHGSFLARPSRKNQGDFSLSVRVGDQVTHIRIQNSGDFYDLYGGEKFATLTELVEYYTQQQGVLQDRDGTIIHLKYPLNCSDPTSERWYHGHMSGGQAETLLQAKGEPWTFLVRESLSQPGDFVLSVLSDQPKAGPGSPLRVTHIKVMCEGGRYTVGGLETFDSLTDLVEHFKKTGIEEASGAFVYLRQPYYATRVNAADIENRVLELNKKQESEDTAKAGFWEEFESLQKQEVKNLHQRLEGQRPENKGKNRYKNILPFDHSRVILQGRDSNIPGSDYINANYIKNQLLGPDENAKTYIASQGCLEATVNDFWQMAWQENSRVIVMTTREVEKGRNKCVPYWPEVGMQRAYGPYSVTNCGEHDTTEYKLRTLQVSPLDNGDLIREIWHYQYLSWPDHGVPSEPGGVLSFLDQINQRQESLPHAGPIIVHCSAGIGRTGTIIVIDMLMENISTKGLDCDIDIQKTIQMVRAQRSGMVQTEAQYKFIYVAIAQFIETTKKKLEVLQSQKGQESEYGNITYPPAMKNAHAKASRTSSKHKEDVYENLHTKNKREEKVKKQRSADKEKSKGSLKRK
# [39] = Half life in CD-1 mouse plasma at 10 mg/kg, po measured after 8 hrs by LC-MS/MS analysis; format: ADME, organism-based; conditions: in vivo
structure (smiles),measurement,setting,value
Cc1c(Br)cc(NC(=O)NS(=O)(=O)O)cc1Br,t1/2,[1],2.4 h
same,"remaining at 0.5 h, 4 µM",[2],38%
same,Ki,[3],0.0012 µM
same,fCmax,[4],21 nM
same,t1/2,[5],2.8 h
same,IC50,[6],> 10 µM
same,fCmax,[7],233 nM
same,inhibition at 0.05 h,CYP3A4,0%
same,IC50,[8],> 10 µM
same,IC50,[9],> 10 µM
same,IC50,[10],> 10 µM
same,IC50,[11],0.003 µM
same,AUC,[12],4.66 µM·h
same,IC50,[13],> 10 µM
same,IC50,[14],> 10 µM
same,IC50,[15],> 10 µM
same,fCmax,[16],322 nM
same,IC50,[17],> 10 µM
same,IC50,[18],> 10 µM
same,IC50,[19],> 10 µM
same,Tmax,[20],2.7 h
same,Cmax,[21],9.69 µM
same,IC50,[22],> 10 µM
same,"remaining at 0.5 h, 4 µM",[23],21%
same,IC50,[24],> 10 µM
same,inhibition at 0.05 h,CYP2D6,2%
same,IC50,[25],> 10 µM
same,F,[26],34%
same,solubility,[27],9.5 µg/mL
same,Vdss,[28],0.42 L/kg
same,IC50,[29],> 10 µM
same,Cmax,[30],13.4 µM
same,Cmax,[31],0.877 µM
same,Fu,[32],0.024
same,IC50,[33],> 10 µM
same,IC50,[34],> 10 µM
same,IC50,[35],> 10 µM
same,IC50,[36],> 10 µM
same,AUC,[37],15.1 µM·h
same,IC50,[38],> 10 µM
same,t1/2,[39],4.2 h

# Source: ChEMBL document CHEMBL5214960 (J Med Chem, 2022)
